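These data come from cells grown in 96-well plates and exposed to compound for 48 hours at five concentrations. The concentration for 50% growth inhibition is given as GI50.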 Active and inactive are the calls of the source. No stated cut-off is given here; in the data, active = GI50 up to about 1.1 µM and inactive = higher.
Tests used:
Test in all cases: inhibition of tumour cell growth, NCI panel, 48 h
[1] = test system: MDA-MB-435
[2] = test system: MOLT-4
[3] = test system: 786-0
[4] = test system: UACC-62
[5] = test system: UO-31
[6] = test system: OVCAR-8
[7] = test system: SF-539
[8] = test system: MDA-N
[9] = test system: T47D
[10] = test system: SN12C
[11] = test system: SK-MEL-5
[12] = test system: SK-MEL-2
[13] = test system: HOP-92
[14] = test system: COLO 205
[15] = test system: HL-60
[16] = test system: SF-295
[17] = test system: SK-OV-3
[18] = test system: IGROV-1
[19] = test system: SNB-75
[20] = test system: MCF7

Cc1ccc2nc(-c3ccc(N)c(Br)c3)sc2c1
GI50 [1]: 5.4 µM (inactive) | GI50 [2]: 4.33 µM (inactive) | GI50 [3]: 29.1 µM (inactive) | GI50 [4]: 23.8 µM (inactive) | GI50 [5]: 5.27 µM (inactive) | GI50 [6]: 48.2 µM (inactive) | GI50 [7]: 33.1 µM (inactive) | GI50 [8]: > 100 µM (inactive) | GI50 [9]: 0.655 µM (active) | GI50 [10]: > 100 µM (inactive) | GI50 [11]: 79.1 µM (inactive) | GI50 [12]: 27.9 µM (inactive) | GI50 [13]: 19.7 µM (inactive) | GI50 [14]: 55.8 µM (inactive) | GI50 [15]: 17.4 µM (inactive) | GI50 [16]: 34.8 µM (inactive) | GI50 [17]: 22.5 µM (inactive)

CC1=Nc2sc3c(c2C2=NCCN12)CCCC3
GI50 [1]: 34 µM (inactive) | GI50 [2]: 26.1 µM (inactive) | GI50 [3]: 21.8 µM (inactive) | GI50 [4]: 15.3 µM (inactive) | GI50 [5]: 17.1 µM (inactive) | GI50 [6]: 15.3 µM (inactive) | GI50 [8]: 22.3 µM (inactive) | GI50 [9]: 32.7 µM (inactive) | GI50 [10]: 29.9 µM (inactive) | GI50 [11]: 28.2 µM (inactive) | GI50 [12]: 35.8 µM (inactive) | GI50 [14]: 32.3 µM (inactive) | GI50 [18]: 18.3 µM (inactive) | GI50 [19]: 37.2 µM (inactive) | GI50 [15]: 22.8 µM (inactive) | GI50 [16]: 33.5 µM (inactive) | GI50 [20]: 23.7 µM (inactive)

Cc1ccc([Se](=C(C(=O)c2ccccc2)C(=O)c2ccccc2)c2ccc(C)cc2)cc1
GI50 [1]: 20.5 µM (inactive) | GI50 [2]: 16 µM (inactive) | GI50 [3]: 38.3 µM (inactive) | GI50 [4]: 20.7 µM (inactive) | GI50 [5]: 30.4 µM (inactive) | GI50 [6]: 26.4 µM (inactive) | GI50 [7]: 25.6 µM (inactive) | GI50 [9]: 34.3 µM (inactive) | GI50 [10]: 12.8 µM (inactive) | GI50 [11]: 18.7 µM (inactive) | GI50 [12]: 30.8 µM (inactive) | GI50 [13]: 15 µM (inactive) | GI50 [14]: 17.3 µM (inactive) | GI50 [18]: 19.6 µM (inactive) | GI50 [19]: 37.8 µM (inactive) | GI50 [15]: 21.3 µM (inactive) | GI50 [16]: 22.3 µM (inactive) | GI50 [20]: 26.7 µM (inactive) | GI50 [17]: 43.7 µM (inactive)

CCN(CC)C(=O)COc1cc2c(O)c3c(O)c(C)c4c(c13)C(=O)C(C)(OC=CC(OC)C(C)C(OC(C)=O)C(C)C(O)C(C)C(O)C(C)C=CC=C(C)C(=O)N2)O4 (stereo not drawn)
GI50 [2]: > 100 µM (inactive) | GI50 [3]: > 100 µM (inactive) | GI50 [4]: > 100 µM (inactive) | GI50 [5]: > 100 µM (inactive) | GI50 [6]: > 100 µM (inactive) | GI50 [8]: > 100 µM (inactive) | GI50 [9]: > 100 µM (inactive) | GI50 [10]: > 100 µM (inactive) | GI50 [11]: > 100 µM (inactive) | GI50 [12]: > 100 µM (inactive) | GI50 [13]: > 100 µM (inactive) | GI50 [18]: > 100 µM (inactive) | GI50 [19]: > 100 µM (inactive) | GI50 [16]: > 100 µM (inactive) | GI50 [20]: > 100 µM (inactive) | GI50 [17]: > 100 µM (inactive)

CCOc1cc2c(cc1O)C(N)C[C@@H]1[C@@H]2CC[C@]2(C)[C@@H](O)CC[C@@H]12 (stereo partly drawn)
GI50 [2]: 33.3 µM (inactive) | GI50 [3]: 40.3 µM (inactive) | GI50 [5]: 36.9 µM (inactive) | GI50 [6]: 83.2 µM (inactive) | GI50 [7]: > 10 µM (inactive) | GI50 [8]: 23.4 µM (inactive) | GI50 [9]: 84.1 µM (inactive) | GI50 [11]: 30.2 µM (inactive) | GI50 [12]: 41.1 µM (inactive) | GI50 [13]: 25.6 µM (inactive) | GI50 [14]: 52.7 µM (inactive) | GI50 [18]: 52.6 µM (inactive) | GI50 [19]: 15 µM (inactive) | GI50 [15]: 18.6 µM (inactive) | GI50 [16]: 32.7 µM (inactive) | GI50 [20]: 40.8 µM (inactive)

CC(C)(C)OC(=O)NC(Cc1ccc(OCc2ccccc2)cn1)C(=O)O (stereo not drawn)
GI50 [1]: > 100 µM (inactive) | GI50 [3]: > 100 µM (inactive) | GI50 [5]: > 100 µM (inactive) | GI50 [6]: > 100 µM (inactive) | GI50 [7]: > 100 µM (inactive) | GI50 [8]: > 100 µM (inactive) | GI50 [10]: > 100 µM (inactive) | GI50 [11]: > 100 µM (inactive) | GI50 [13]: > 100 µM (inactive) | GI50 [14]: > 100 µM (inactive) | GI50 [18]: > 100 µM (inactive) | GI50 [15]: > 100 µM (inactive) | GI50 [16]: > 100 µM (inactive) | GI50 [20]: > 100 µM (inactive)

CCOC(=O)c1sc2nc(SC)nc3c2c1NCN3C1CC1
GI50 [1]: > 100 µM (inactive) | GI50 [3]: 48.2 µM (inactive) | GI50 [4]: > 100 µM (inactive) | GI50 [5]: > 100 µM (inactive) | GI50 [6]: 36.6 µM (inactive) | GI50 [9]: 48.6 µM (inactive) | GI50 [10]: > 100 µM (inactive) | GI50 [11]: > 100 µM (inactive) | GI50 [12]: > 100 µM (inactive) | GI50 [13]: > 100 µM (inactive) | GI50 [14]: > 100 µM (inactive) | GI50 [18]: > 100 µM (inactive) | GI50 [19]: 38.8 µM (inactive) | GI50 [16]: > 100 µM (inactive) | GI50 [17]: > 100 µM (inactive)

N#[N+]c1cc2c(cc1Br)-c1ccccc1C2
GI50 [1]: 81.8 µM (inactive) | GI50 [2]: 10.3 µM (inactive) | GI50 [3]: > 100 µM (inactive) | GI50 [4]: 44.9 µM (inactive) | GI50 [5]: > 100 µM (inactive) | GI50 [6]: 15.6 µM (inactive) | GI50 [7]: > 100 µM (inactive) | GI50 [9]: > 100 µM (inactive) | GI50 [10]: > 100 µM (inactive) | GI50 [11]: 48.5 µM (inactive) | GI50 [12]: 83.9 µM (inactive) | GI50 [13]: 11.9 µM (inactive) | GI50 [14]: > 100 µM (inactive) | GI50 [18]: 38.8 µM (inactive) | GI50 [19]: > 100 µM (inactive) | GI50 [15]: 51.4 µM (inactive) | GI50 [16]: > 100 µM (inactive) | GI50 [20]: 45.5 µM (inactive) | GI50 [17]: > 100 µM (inactive)
